# Values joined by “and” are separate entries in the source; they are usually repeats but may differ in a detail not shown here. Equal entries are not always repeated. Where two headings read alike, the source gives them in different places.
# Experiments:
# Format in all cases: cell-based, human
# ES2(ovarian) cells = experiment: MTT assay ES2; settings: for viable cells by MTT assay: ES2, 10 ug/ml
# [1] = system: collagen expression in ES2 cells; experiment: Microarray gene expression, Table 5
# Protocol: (§1) Y/D is the ratio (in folds) of gene expression in cells treated with compound Y as compared with those of the no drug control (D),
# (§2) YM/D is the ratio of gene expression in cells treated with compound YM (ACH-Y, Y without sugar moiety) compared with those of the no drug control (D)
# (§3) Cell culture and drug-treatment.: ES2 cells were seeded in a T-25 flask with 4.5 million cells per flask for 24 hours. Cell culture was replaced with fresh medium with xanifolia-Y (Y) or DMSO no drug control (D) for 24 hours. Cells were then harvested for RNA isolation. Three experiments were done.
# RNA extraction, labeling, hybridization, and data analysis. RNA was extracted from tumor cells using the Qiagen RNeasy Kit. RNA quality and quantity was checked by the Agilent BioAnalyzer and the NanoDrop® ND-1000 spectrophotometer respectively before further manipulation. The first and second cDNA strands were synthesized from 20 ng of total RNA using the Affymetrix T7 oligo(dT) primer protocol and kit for the two-cycle amplification. To produce amplified biotin-labeled-cRNA, the cDNA was […] by in vitro transcription using the MegaScript kit from Ambion. 15.0 μg of the labeled cRNA was fragmented and re-checked for concentration using the NanoDrop® ND-1000 spectrophotometer. A hybridization cocktail containing Affymetrix spike-in controls and fragmented labeled cRNA was loaded onto the Human U133 Plus 2.0 GeneChip® oligonucleotide array. The Affymetrix array (Affymetrix, Inc. Santa Clara, Calif.) is comprised of over 1,300,000 unique oligonucleotide features that represent greater than 38,500 well-substantiated human genes. The array was hybridized for 16 hours at 45° C. with rotation at 60 rpm then washed and stained with a strepavidin, R-phycoerythrin conjugate stain on the Affymetrix Fluidicis Station 450. Signal amplification was done using biotinylated antistreptavidin. The arrays were scanned using the GeneChip® 3000 confocal laser scanner with autoloader. The images were analyzed and quality control metrics recorded using Affymetrix GCOS software version 1.4. Lastly, the expression value for each gene was calculated using dChip PM-only model based or Plier algorithm.
# Pairwise comparisons were made as follows: Treated vs. Control (Y vs. D), Modified Drug vs Control (YM/ACY-H vs. D) and Treated vs. Modified Drug (Y vs. YM/ACH-Y) Cel files analyzed using the Bioconductor package of R Statistical programming. Limma analysis generated a reasonable number of changing genes between the samples.
# The raw data in the .CEL files were normalized by the GCRMA method (robust multi-array analysis). It is implemented in Bioconductor (http://www.bioconductor.org/). The raw signal intensity data were normalized, background corrected and summarized based on certain statistical models, and an expression value, in log 2-scale, is obtained per chip per probe set. Then the null hypothesis was tested that there's no significant changes in gene expression between the treatment pairs. This was done by LIMMA and is also implemented in Bioconductor. It uses empirical Bayes method to estimate the variance in gene expression. One comparison was made, namely, High Grade vs. Low Grade. The raw p-values were adjusted by the Benjamnin-Hochberg method for false discovery rate (FDR) control. All data sets contained a significant number of genes with a p-value less than 0.05, which is that the probability that a gene is NOT differential expressed (false positive) is 1:20.
# [2] = system: tenascin-C expression in ES2 cells; experiment: Microarray gene expression, Table 9; settings: probe 201645_at
# Protocol: as §1, §2, §3
# RNA extraction, labeling, hybridization, and data analysis. RNA was extracted from tumor cells using the Qiagen RNeasy Kit. RNA quality and quantity was checked by the Agilent BioAnalyzer and the NanoDrop® ND-1000 spectrophotometer respectively before further manipulation. […] The images were analyzed and quality control metrics recorded using Affymetrix GCOS software version 1.4. Lastly, the expression value for each gene was calculated using dChip PM-only model based or Plier algorithm.
# Pairwise comparisons were made as follows: Treated vs. Control (Y vs. D), Modified Drug vs Control (YM/ACY-H vs. D) and Treated vs. Modified Drug (Y vs. YM/ACH-Y) Cel files analyzed using the Bioconductor package of R Statistical programming. […]
compound,measurement,setting,value
"C/C=C(/C)C(=O)O[C@H]1[C@H](OC(=O)/C(C)=C\C)[C@@]2(CO)C(CC1(C)C)C1=CCC3[C@@]4(C)CC[C@H](O[C@@H]5OC(C(=O)O)[C@@H](O)C(O[C@@H]6O[C@@H](CO)C(O)C6O)C5O[C@@H]5OC(CO)[C@H](O)C(O)C5O)C(C)(C)C4CC[C@@]3(C)[C@]1(C)[C@@H](O)[C@H]2O (stereo partly drawn) [Xanifolia-Y, 3-O-[β-D-galactopyranosyl (1→2)]-α-L-arabinofuranosy (1→3)-β-D-glucuronopyranosyl-21,22-O-diangeloyl-3β, 15α, 16α, 21β, 22α, 28-hexahydroxyolean-12-ene]",growth of cells compared to the DMSO control (MTT),"ES2(ovarian) cells; ES2, 10 ug/ml (F13)",89%
same,viable cells by MTT assay,ES2(ovarian) cells; 7 hours,93%
same,viable cells by MTT assay,ES2(ovarian) cells; 18 hours,Over 95%
same,viable cells by MTT assay,ES2(ovarian) cells; 24 hours,85% and 87%
same,IC50,ES2(ovarian) cells; ES2 cells,4.4 µg/mL
same,IC50,"ES2(ovarian) cells; Homo sapiens, ES2, Clear cell, read-out: IC50",4.4 µM
same,IC50,"ES2(ovarian) cells; Homo sapiens, ES-2, ES2 cells, combined with Paclitaxel, read-out: IC50 value for Xanifolia-Y when both drugs were used",2.5 µg/mL
same,IC50,"ES2(ovarian) cells; Homo sapiens, ES-2, ES2 cells, read-out: IC50",5 µg/mL
same,"P4HB procollagen-proline, 2-oxoglutarate 4-dioxygenase, beta polypeptide, gene expression ratio to no drug control (D)",[1]; probe 200654_at,−1.6 folds
same,"P4HB procollagen-proline, 2-oxoglutarate 4-dioxygenase, beta polypeptide, gene expression ratio to no drug control (D)",[1]; probe 200656_s_at,−1.8 folds
same,"PLOD1 procollagen-lysine 1,2-oxoglutarate 5-dioxygenase 1, gene expression ratio to no drug control (D)",[1]; probe 200827_at,−1.7 folds
same,"COL6A3 collagen, type VI, alpha 3, gene expression ratio to no drug control (D)",[1]; probe 201438_at,−2.4 folds
same,"PLOD3 procollagen-lysine, 2-oxoglutarate 5-dioxygenase 3, gene expression ratio to no drug control (D)",[1]; probe 202185_at,−1.3 folds
same,"COL1A1 collagen, type I, alpha 1, gene expression ratio to no drug control (D)",[1]; probe 202311_s_at,−1.6 folds
same,"PCOLCE procollagen C-endopeptidase enhancer, gene expression ratio to no drug control (D)",[1]; probe 202465_at,−1.3 folds
same,"PLOD2 procollagen-lysine, 2-oxoglutarate 5-dioxygenase 2, gene expression ratio to no drug control (D)",[1]; probe 202619_s_at,−1.7 folds
same,"PLOD2 procollagen-lysine, 2-oxoglutarate 5-dioxygenase 2, gene expression ratio to no drug control (D)",[1]; probe 202620_s_at,−1.4 folds
same,"P4HA2 procollagen-proline, 2-oxoglutarate 4-dioxygenase, alpha polypeptide II, gene expression ratio to no drug control (D)",[1]; probe 202733_at,−1.4 folds
same,"COL5A1 collagen, type V, alpha 1, gene expression ratio to no drug control (D)",[1]; probe 203325_s_at,−1.7 folds
same,"P4HA1 procollagen-proline, 2-oxoglutarate 4-dioxygenase, alpha polypeptide I, gene expression ratio to no drug control (D)",[1]; probe 207543_s_at,−2.0 folds
same,"COL13A1 collagen, type XIII, alpha 1, gene expression ratio to no drug control (D)",[1]; probe 208535_x_at,−1.4 folds
same,"COL18A1 collagen, type XVIII, alpha 1, gene expression ratio to no drug control (D)",[1]; probe 209081_s_at,−1.7 folds
same,"COL13A1 collagen, type XIII, alpha 1, gene expression ratio to no drug control (D)",[1]; probe 211343_s_at,−1.9 folds
same,"COL13A1 collagen, type XIII, alpha 1, gene expression ratio to no drug control (D)",[1]; probe 211809_x_at,−2.0 folds
same,"COL4A2 collagen, type IV, alpha 2, gene expression ratio to no drug control (D)",[1]; probe 211966_at,−1.8 folds
same,"COL4A1 collagen, type IV, alpha 1, gene expression ratio to no drug control (D)",[1]; probe 211981_at,−1.6 folds
same,"COL6A1 collagen, type VI, alpha 1, gene expression ratio to no drug control (D)",[1]; probe 212091_s_at,−1.6 folds
same,"COL5A1 collagen, type V, alpha 1, gene expression ratio to no drug control (D)",[1]; probe 212489_at,−1.5 folds
same,"COL4A5 collagen, type IV, alpha 5 (Alport syndrome), gene expression ratio to no drug control (D)",[1]; probe 213110_s_at,−1.6 folds
same,"COL6A2 collagen, type VI, alpha 2, gene expression ratio to no drug control (D)",[1]; probe 213290_at,−1.6 folds
same,"COL4A6 collagen, type IV, alpha 6, gene expression ratio to no drug control (D)",[1]; probe 213992_at,−2.0 folds
same,"COL10A1 collagen, type X, alpha 1, gene expression ratio to no drug control (D)",[1]; probe 217428_s_at,−3.0 folds
same,"COL5A2 collagen, type V, alpha 2, gene expression ratio to no drug control (D)",[1]; probe 221729_at,−1.3 folds
same,"COL5A2 collagen, type V, alpha 2, gene expression ratio to no drug control (D)",[1]; probe 221730_at,−1.6 folds
same,"COL12A1 collagen, type XII, alpha 1, gene expression ratio to no drug control (D)",[1]; probe 231766_s_at,−2.8 folds
same,"CCBE1 collagen and calcium binding EGF domains 1, gene expression ratio to no drug control (D)",[1]; probe 242324_x_at,−1.3 folds
same,"COL5A1 collagen, type V, alpha 1, gene expression ratio to no drug control (D)",[1]; probe 1556138_a_at,−2.2 folds
same,"P4HA2 procollagen-proline, 2-oxoglutarate 4-dioxygenase, alpha polypeptide II, gene expression ratio to no drug control (D)",[1]; probe 1568611_at,−1.3 folds
same,"expression ratio to the control, collagen",[1]; span over probes of Table 5,−1.3 to −3.0 folds
same,"TNC Tenascin C (hexabrachion), gene expression ratio to no drug control (D)",[2],−3.2 folds

# Source: patent US10213451B2, “Methods and compounds for modulating the secretion or expression of adhesion proteins or angiopoietins of cells” (PACIFIC ARROW LIMITED, priority 2004, dated 2019)
